Experiment [1] addresses T1, Bromodomain-containing protein 2 (Homo sapiens, UniProt P25440). The experiment can be described thus: Inhibition of BRD2 bromodomain 1 (67 to 200 residues) (unknown origin) extracted from Escherichia coli […] codon plus RIL cells incubated for 4 hrs by fluorescence anisotropy. (Polarisation of emitted light reports the rotation of a fluorescent probe.)
In experiment [2] the target is Histone acetyltransferase p300 (Homo sapiens, UniProt Q09472). The experiment can be described thus: Inhibition of EP300 (1039 to 1161 residues) (unknown origin) extracted from Escherichia coli […] codon plus RIL cells incubated for 4 hrs by fluorescence anisotropy.
Histone acetyltransferase p300, sequence (Q09472 whole entry, the tested form may be a part): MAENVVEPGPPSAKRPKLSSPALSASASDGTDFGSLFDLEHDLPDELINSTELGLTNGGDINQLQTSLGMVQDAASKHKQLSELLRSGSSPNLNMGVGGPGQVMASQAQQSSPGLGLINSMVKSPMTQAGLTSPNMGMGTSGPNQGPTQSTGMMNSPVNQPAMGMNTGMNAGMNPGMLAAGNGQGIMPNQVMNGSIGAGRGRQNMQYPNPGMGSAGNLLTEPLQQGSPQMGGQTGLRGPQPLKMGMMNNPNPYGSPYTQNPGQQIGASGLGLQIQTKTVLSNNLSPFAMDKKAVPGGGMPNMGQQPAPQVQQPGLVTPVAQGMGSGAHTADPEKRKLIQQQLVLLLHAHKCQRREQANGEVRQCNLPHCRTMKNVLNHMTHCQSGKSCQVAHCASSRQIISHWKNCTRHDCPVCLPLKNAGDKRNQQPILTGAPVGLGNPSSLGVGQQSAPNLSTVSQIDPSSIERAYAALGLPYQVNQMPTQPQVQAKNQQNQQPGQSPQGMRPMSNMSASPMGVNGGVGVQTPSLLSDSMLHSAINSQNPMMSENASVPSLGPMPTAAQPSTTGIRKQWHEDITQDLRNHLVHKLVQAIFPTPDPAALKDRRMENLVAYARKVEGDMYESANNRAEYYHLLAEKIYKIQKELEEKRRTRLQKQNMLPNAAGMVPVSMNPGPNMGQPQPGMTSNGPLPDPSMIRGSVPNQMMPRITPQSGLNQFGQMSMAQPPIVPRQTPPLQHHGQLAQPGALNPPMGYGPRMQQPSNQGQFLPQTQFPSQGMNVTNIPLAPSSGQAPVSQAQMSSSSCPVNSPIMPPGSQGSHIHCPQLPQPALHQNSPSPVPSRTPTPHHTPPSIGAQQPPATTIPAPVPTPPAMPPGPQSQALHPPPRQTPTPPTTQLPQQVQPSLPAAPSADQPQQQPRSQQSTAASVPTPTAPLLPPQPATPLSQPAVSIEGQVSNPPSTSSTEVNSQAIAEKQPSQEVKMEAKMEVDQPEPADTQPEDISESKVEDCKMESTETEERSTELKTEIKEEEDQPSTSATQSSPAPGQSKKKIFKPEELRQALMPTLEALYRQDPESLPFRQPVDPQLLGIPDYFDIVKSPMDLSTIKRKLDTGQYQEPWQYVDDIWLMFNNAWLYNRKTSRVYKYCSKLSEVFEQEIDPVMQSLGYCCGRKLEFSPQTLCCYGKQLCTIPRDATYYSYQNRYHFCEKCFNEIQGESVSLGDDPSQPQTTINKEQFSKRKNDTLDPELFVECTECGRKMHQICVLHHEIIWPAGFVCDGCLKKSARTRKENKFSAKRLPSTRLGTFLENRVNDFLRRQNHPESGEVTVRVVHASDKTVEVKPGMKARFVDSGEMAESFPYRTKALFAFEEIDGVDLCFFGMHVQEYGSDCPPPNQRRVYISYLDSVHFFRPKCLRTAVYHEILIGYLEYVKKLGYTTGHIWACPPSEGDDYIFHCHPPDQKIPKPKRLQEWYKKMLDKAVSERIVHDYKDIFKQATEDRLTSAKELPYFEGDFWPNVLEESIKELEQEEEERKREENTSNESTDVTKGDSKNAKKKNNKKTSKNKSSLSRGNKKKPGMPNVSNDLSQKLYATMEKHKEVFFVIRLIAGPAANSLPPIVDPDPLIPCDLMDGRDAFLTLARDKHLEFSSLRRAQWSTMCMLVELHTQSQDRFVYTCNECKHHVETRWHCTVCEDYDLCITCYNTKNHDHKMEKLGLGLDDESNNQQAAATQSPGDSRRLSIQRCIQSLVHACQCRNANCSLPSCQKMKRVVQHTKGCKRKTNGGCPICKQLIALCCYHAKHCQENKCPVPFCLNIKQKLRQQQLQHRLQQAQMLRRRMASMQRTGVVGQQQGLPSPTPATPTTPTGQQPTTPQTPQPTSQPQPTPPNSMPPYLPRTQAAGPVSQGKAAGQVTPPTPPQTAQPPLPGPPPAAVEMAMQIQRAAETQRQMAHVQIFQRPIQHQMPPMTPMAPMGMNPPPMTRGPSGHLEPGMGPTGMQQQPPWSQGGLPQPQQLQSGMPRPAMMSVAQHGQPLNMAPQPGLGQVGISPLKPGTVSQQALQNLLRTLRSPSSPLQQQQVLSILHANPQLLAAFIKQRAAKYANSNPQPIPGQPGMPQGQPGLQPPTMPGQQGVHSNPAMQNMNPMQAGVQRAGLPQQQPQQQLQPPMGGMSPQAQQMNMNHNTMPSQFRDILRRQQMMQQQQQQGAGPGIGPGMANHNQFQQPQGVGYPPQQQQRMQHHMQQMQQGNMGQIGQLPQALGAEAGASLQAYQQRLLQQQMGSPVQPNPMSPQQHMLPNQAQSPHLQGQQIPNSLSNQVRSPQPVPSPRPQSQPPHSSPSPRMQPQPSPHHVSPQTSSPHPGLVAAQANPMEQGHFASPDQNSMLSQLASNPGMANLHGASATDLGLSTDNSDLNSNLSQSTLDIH
The target of experiment [3] is T1, Bromodomain-containing protein 2. The experiment can be described thus: Inhibition of BRD2 bromodomain 2 (348 to 455 residues) (unknown origin) extracted from Escherichia coli […] codon plus RIL cells incubated for 4 hrs by fluorescence anisotropy.
Experiment [4] concerns the target T2, Bromodomain-containing protein 4 (Homo sapiens, UniProt O60885). The experiment can be described thus: Inhibition of BRD4 bromodomain 1 (44 to 168 residues) (unknown origin) extracted from Escherichia coli […] codon plus RIL cells incubated for 4 hrs by fluorescence anisotropy.
Experiment [5] concerns the target T2, Bromodomain-containing protein 4. The experiment can be described thus: Inhibition of BRD4 bromodomain 2 (332 to 460 residues) (unknown origin) extracted from Escherichia coli […] codon plus RIL cells incubated for 4 hrs by fluorescence anisotropy.

T1 sequence (P25440 whole entry, the tested form may be a part): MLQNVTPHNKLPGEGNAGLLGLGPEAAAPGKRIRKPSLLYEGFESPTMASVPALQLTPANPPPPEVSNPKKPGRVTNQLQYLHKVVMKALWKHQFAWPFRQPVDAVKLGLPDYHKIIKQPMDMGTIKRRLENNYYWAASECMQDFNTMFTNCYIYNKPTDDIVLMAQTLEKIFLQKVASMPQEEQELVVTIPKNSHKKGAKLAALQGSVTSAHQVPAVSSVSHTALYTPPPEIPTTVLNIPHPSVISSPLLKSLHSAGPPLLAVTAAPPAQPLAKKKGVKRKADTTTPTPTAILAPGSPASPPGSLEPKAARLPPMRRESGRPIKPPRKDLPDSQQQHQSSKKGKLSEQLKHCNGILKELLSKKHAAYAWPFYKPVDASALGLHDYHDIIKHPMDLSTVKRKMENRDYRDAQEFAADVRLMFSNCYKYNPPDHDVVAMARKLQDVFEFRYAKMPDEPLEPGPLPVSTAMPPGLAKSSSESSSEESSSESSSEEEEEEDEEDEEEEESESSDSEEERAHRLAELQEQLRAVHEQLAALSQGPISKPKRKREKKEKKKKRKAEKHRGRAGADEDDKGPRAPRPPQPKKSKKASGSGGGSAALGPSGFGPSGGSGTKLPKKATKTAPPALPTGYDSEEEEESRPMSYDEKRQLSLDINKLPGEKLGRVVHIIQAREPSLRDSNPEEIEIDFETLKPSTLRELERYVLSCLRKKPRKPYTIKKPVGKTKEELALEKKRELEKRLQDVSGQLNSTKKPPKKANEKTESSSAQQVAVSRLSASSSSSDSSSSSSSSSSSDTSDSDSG

The IC50 is the concentration that inhibits the measured activity by half. For `Cc1cc(Nc2nn(C)c3ccccc23)nc(Nc2ccc3c(c2)N(C(C)C)[C@H](C)C(=O)N3C)n1`, the IC50 in experiment [1] is 50.5 nM; in experiment [2], above 1000 nM; in experiment [3], 291 nM.

Turning to `CCc1cc(Nc2nn(C)c3ccccc23)nc(Nc2ccc3c(c2)N(C(C)C)[C@H](C)C(=O)N3C)n1`, the IC50 in experiment [1] was 29.3 nM; in experiment [2], above 1000 nM; in experiment [3] it was 302 nM.

As to `CC(C)N1c2cc(Nc3nccc(Nc4nn(C)c5ccccc45)n3)ccc2N(C)C(=O)[C@H]1C`, the half-inhibitory concentration (IC50) is 31.8 nM in experiment [1], above 1000 nM in experiment [2] and 233 nM in experiment [3].

With `CCc1cc(Nc2cccc(Cl)c2)nc(Nc2ccc3c(c2)N(C(C)C)[C@H](C)C(=O)N3C)n1`, the half-maximal inhibitory concentration (IC50) in experiment [4] was 504 nM; in experiment [5], 2070 nM.

Source of the values: ChEMBL document CHEMBL6103593, “Design of Selective BRD4 Inhibitors for the Treatment of Autosomal Dominant Polycystic Kidney Disease” (J Med Chem, 2025).
